Source: patent publication US20220089578A1, “COMPOUNDS AS GLP-1R AGONISTS” (Terns Pharmaceuticals, Inc., priority 2020, published 2022)

Biological target: human GLP-1R (Homo sapiens, UniProt P43220)
Test: GLP-1R Cell Assay 1: cAMP Hunter CHO-K1 GLP1R Gs cell line, HitHunter cAMP assay
Format: cell-based
Conditions: cAMP Hunter CHO-K1 GLP1R Gs cells, percent activity normalized to Exendin-4
Summary of the method: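 CHO-K1 cells overexpressing wild-type human GLP-1R treated with 3-fold serially diluted compounds for 30-60 min at 37 °C. cAMP measured by EFC competitive luminescent immunoassay; activity normalised to Exendin-4, duplicate runs, EC50 by nonlinear regression.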

human GLP-1R, sequence (P43220 24-463): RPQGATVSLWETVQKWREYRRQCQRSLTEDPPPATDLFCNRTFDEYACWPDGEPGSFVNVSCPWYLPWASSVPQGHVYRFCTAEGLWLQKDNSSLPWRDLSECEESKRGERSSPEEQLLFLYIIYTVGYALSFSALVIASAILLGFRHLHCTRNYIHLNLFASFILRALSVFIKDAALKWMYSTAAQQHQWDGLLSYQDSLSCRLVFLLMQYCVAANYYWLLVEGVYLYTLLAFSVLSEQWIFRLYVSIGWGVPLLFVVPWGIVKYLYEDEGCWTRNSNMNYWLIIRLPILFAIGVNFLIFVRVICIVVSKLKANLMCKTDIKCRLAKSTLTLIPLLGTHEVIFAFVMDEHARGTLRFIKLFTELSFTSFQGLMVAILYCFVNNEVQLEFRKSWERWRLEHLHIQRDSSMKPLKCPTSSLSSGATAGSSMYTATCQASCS

| Compound | EC50 (Table 2) | EC50 (Table 3) |
| --- | --- | --- |
| O=C(O)c1ccc2nc(CN3CCC(n4ccc(OCc5ccccc5)n4)CC3)n(C[C@@H]3CCO3)c2c1 [Compound 22, (S)-2-((4-(3-(benzyloxy)-1H-pyrazol-1-yl)piperidin-1-yl)methyl)-1-(oxetan-2-ylmethyl)-1H-benzo[d]imidazole-6-carboxylic acid] | 3740 nM |  |
| O=C(O)c1ccc2nc(CN3CCN(c4cccc(OCc5ccccc5)n4)C(=O)C3)n(C[C@@H]3CCO3)c2c1 [Compound 19, (S)-2-((4-(6-(benzyloxy)pyridin-2-yl)-3-oxopiperazin-1-yl)methyl)-1-(oxetan-2-ylmethyl)-1H-benzo[d]imidazole-6-carboxylic acid] | 41.2 nM |  |
| O=C(O)c1ccc2nc(CN3CC[C@]4(c5cccc(OCc6ccc(Cl)cc6F)n5)C[C@@H]4C3)n(C[C@@H]3CCO3)c2c1 [Compound 98, 2-(((1S,6R)-6-(6-((4-chloro-2-fluorobenzyl)oxy)pyridin-2-yl)-3-azabicyclo[4.1.0]heptan-3-yl)methyl)-1-(((S)-oxetan-2-yl)methyl)-1H-benzo[d]imidazole-6-carboxylic acid] | 0.556 nM |  |
| O=C(O)c1ccc2nc(CN3CCC(O)(c4cccc(OCc5ccccc5)n4)CC3)n(C[C@@H]3CCO3)c2c1 [Compound 18, (S)-2-((4-(6-(benzyloxy)pyridin-2-yl)-4-hydroxypiperidin-1-yl)methyl)-1-(oxetan-2-ylmethyl)-1H-benzo[d]imidazole-6-carboxylic acid] | > 500 nM |  |
| O=C(O)c1ccc2nc(CN3CCN(c4ccc5cnn(Cc6ccccc6)c5n4)CC3)n(C[C@@H]3CCO3)c2c1 [Compound 27, (S)-2-((4-(1-benzyl-1H-pyrazolo[3,4-b]pyridin-6-yl)piperazin-1-yl)methyl)-1-(oxetan-2-ylmethyl)-1H-benzo[d]imidazole-6-carboxylic acid] | 232 nM |  |
| O=C(O)c1ccc2nc(CN3CCN(c4cccc(OC5(c6ccccc6)CCC5)n4)CC3)n(C[C@@H]3CCO3)c2c1 [Compound 51, (S)-1-(oxetan-2-ylmethyl)-2-((4-(6-(1-phenylcyclobutoxy)pyridin-2-yl)piperazin-1-yl)methyl)-1H-benzo[d]imidazole-6-carboxylic acid] | 348 nM |  |
| CCn1cncc1Cn1c(CN2CC[C@]3(c4cccc(OCc5ccc(C#N)cc5F)n4)C[C@@H]3C2)nc2ccc(C(=O)O)cc21 (single isomer, unassigned) [Compound 121-P2] | 0.0386 nM |  |
| C[C@H]1COC[C@H](N2CCC(c3cccc(OCc4ccc(C#N)cc4F)n3)CC2)c2nc3ccc(C(=O)O)cc3n21 (single isomer, unassigned) [Compound 8-P1] | > 500 nM |  |
| O=C(O)c1ccc2nc(CN3CCN(c4cccc(OCC5CCOCC5)n4)CC3)n(C[C@@H]3CCO3)c2c1 [Compound 33, (S)-1-(oxetan-2-ylmethyl)-2-((4-(6-((tetrahydro-2H-pyran-4-yl)methoxy)pyridin-2-yl)piperazin-1-yl)methyl)-1H-benzo[d]imidazole-6-carboxylic acid] | > 500 nM |  |
| O=C(O)c1ccc2nc(CN3CCN(c4cccc(OCC5CCC(F)(F)CC5)n4)CC3)n(C[C@@H]3CCO3)c2c1 [Compound 36, (S)-2-((4-(6-((4,4-difluorocyclohexyl)methoxy)pyridin-2-yl)piperazin-1-yl)methyl)-1-(oxetan-2-ylmethyl)-1H-benzo[d]imidazole-6-carboxylic acid] | 36.4 nM |  |
| N#Cc1ccc(COc2cccc(C3CCN([C@@H]4CCn5c4nc4ccc(C(=O)O)cc45)CC3)n2)c(F)c1 (single isomer, unassigned) [Compound 6-P1] | 248 nM |  |

The next lines start with the values.

| EC50 (Table 2) | EC50 (Table 3) | Compound |
| --- | --- | --- |
| 54.5 nM |  | CN(Cc1ccc(C#N)cc1)c1cccc(N2CCN(Cc3nc4ccc(C(=O)O)cc4n3C[C@@H]3CCO3)CC2)n1 [Compound 63, (S)-2-((4-(6-((4-cyanobenzyl)(methyl)amino)pyridin-2-yl)piperazin-1-yl)methyl)-1-(oxetan-2-ylmethyl)-1H-benzo[d]imidazole-6-carboxylic acid] |
| > 500 nM |  | N#CC1(COc2cccc(N3CCN(Cc4nc5ccc(C(=O)O)cc5n4C[C@@H]4CCO4)CC3)n2)COC1 [Compound 61, (S)-2-((4-(6-((3-cyanooxetan-3-yl)methoxy)pyridin-2-yl)piperazin-1-yl)methyl)-1-(oxetan-2-ylmethyl)-1H-benzo[d]imidazole-6-carboxylic acid] |
| 6.11 nM |  | O=C(O)c1ccc2nc(CN3CCN(c4cccc(OCc5cc6ccccc6cn5)n4)CC3)n(C[C@@H]3CCO3)c2c1 [Compound 85, (S)-2-((4-(6-(isoquinolin-3-ylmethoxy)pyridin-2-yl)piperazin-1-yl)methyl)-1-(oxetan-2-ylmethyl)-1H-benzo[d]imidazole-6-carboxylic acid] |
|  | 261 nM | N#Cc1ccc([C@H]2CCc3c(cccc3N3CCN(Cc4nc5ccc(C(=O)O)cc5n4C[C@@H]4CCO4)CC3)O2)c(F)c1 (single isomer, unassigned) [Compound 151-P1] |
|  | 0.9 nM | N#Cc1ccc(COc2cccc(N3CCN(Cc4nc5ccc(C(=O)O)cc5n4C[C@@H]4CCO4)CC3)c2)c(F)c1 [Compound 150, (S)-2-((4-(3-((4-cyano-2-fluorobenzyl)oxy)phenyl)piperazin-1-yl)methyl)-1-(oxetan-2-ylmethyl)-1H-benzo[d]imidazole-6-carboxylic acid] |
|  | > 500 nM | O=C(O)c1ccc2nc(CN3CCN(c4ccc5c(n4)N(Cc4ccccc4)C(=O)CC5)CC3)n(C[C@@H]3CCO3)c2c1 [Compound 158, (S)-2-((4-(8-benzyl-7-oxo-5,6,7,8-tetrahydro-1,8-naphthyridin-2-yl)piperazin-1-yl)methyl)-1-(oxetan-2-ylmethyl)-1H-benzo[d]imidazole-6-carboxylic acid] |
| 0.246 nM |  | O=C(O)c1ccc2nc(CN3CCN(c4cccc(OCc5nc6ccc(F)cc6s5)n4)CC3)n(C[C@@H]3CCO3)c2c1 [Compound 128, (S)-2-((4-(6-((6-fluorobenzo[d]thiazol-2-yl)methoxy)pyridin-2-yl)piperazin-1-yl)methyl)-1-(oxetan-2-ylmethyl)-1H-benzo[d]imidazole-6-carboxylic acid] |
|  | > 500 nM | N#Cc1ccc(CN2CCCc3ccc(N4CCN(Cc5nc6ccc(C(=O)O)cc6n5C[C@@H]5CCO5)CC4)nc32)c(F)c1 [Compound 148, (S)-2-((4-(8-(4-cyano-2-fluorobenzyl)-5,67,8-tetrahydro-1,8-naphthyridin-2-yl)piperazin-1-yl)methyl)-1-(oxetan-2-ylmethyl)-1H-benzo[d]imidazole-6-carboxylic acid] |
| 0.552 nM |  | O=C(O)c1ccc2nc(CN3CCN(c4cccc(OCc5nc6cc(F)ccc6s5)n4)CC3)n(C[C@@H]3CCO3)c2c1 [Compound 119, (S)-2-((4-(6-((5-fluorobenzo[d]thiazol-2-yl)methoxy)pyridin-2-yl)piperazin-1-yl)methyl)-1-(oxetan-2-ylmethyl)-1H-benzo[d]imidazole-6-carboxylic acid] |
|  | > 500 nM | O=C(O)c1ccc2nc(CN3CCN(c4ccc5c(n4)N(Cc4ccccc4)CCC5)CC3)n(C[C@@H]3CCO3)c2c1 [Compound 153, (S)-2-((4-(8-benzyl-5,6,7,8-tetrahydro-1,8-naphthyridin-2-yl)piperazin-1-yl)methyl)-1-(oxetan-2-ylmethyl)-1H-benzo[d]imidazole-6-carboxylic acid] |
| > 500 nM |  | O=C(O)c1ccc2nc3n(c2c1)CCOC[C@H]3N1CCC(c2cccc(OCc3ccccc3)n2)CC1 [Compound 93, (S)-5-(4-(6-(benzyloxy)pyridin-2-yl)piperidin-1-yl)-1,2,4,5-tetrahydrobenzo[4,5]imidazo [1,2-d][1,4]oxazepine-9-carboxylic acid] |
| 8.35 nM |  | N#Cc1ccc(COc2ccn(C3CCN(Cc4nc5ccc(C(=O)O)cc5n4C[C@@H]4CCO4)CC3)n2)c(F)c1 [Compound 92, (S)-2-((4-(3-((4-cyano-2-fluorobenzyl)oxy)-1H-pyrazol-1-yl)piperidin-1-yl)methyl)-1-(oxetan-2-ylmethyl)-1H-benzo[d]imidazole-6-carboxylic acid] |
| 2.03 nM |  | O=C(O)c1ccc2nc(CN3CCN(c4cccc(OCc5cc6ccccc6o5)n4)CC3)n(C[C@@H]3CCO3)c2c1 [Compound 68, (S)-2-((4-(6-(benzofuran-2-ylmethoxy)pyridin-2-yl)piperazin-1-yl)methyl)-1-(oxetan-2-ylmethyl)-1H-benzo[d]imidazole-6-carboxylic acid] |
|  | > 500 nM | O=C(O)c1ccc2nc(CN3CCN(c4ccc5c(n4)N(Cc4ccccc4)C(=O)CO5)CC3)n(C[C@@H]3CCO3)c2c1 [Compound 154, (S)-2-((4-(4-benzyl-3-oxo-3,4-dihydro-2H-pyrido[3,2-b][1,4]oxazin-6-yl)piperazin-1-yl)methyl)-1-(oxetan-2-ylmethyl)-1H-benzo[d]imidazole-6-carboxylic acid] |
| > 500 nM |  | CN(Cc1ccc(C(N)=O)cc1)c1cccc(N2CCN(Cc3nc4ccc(C(=O)O)cc4n3C[C@@H]3CCO3)CC2)n1 [Compound 64, (S)-2-((4-(6-((4-carbamoylbenzyl)(methyl)amino)pyridin-2-yl)piperazin-1-yl)methyl)-1-(oxetan-2-ylmethyl)-1H-benzo[d]imidazole-6-carboxylic acid] |
| 56.2 nM |  | N#Cc1cccc2c1CCCN(c1cccc(N3CCN(Cc4nc5ccc(C(=O)O)cc5n4C[C@@H]4CCO4)CC3)n1)C2 [Compound 78, (S)-2-((4-(6-(6-cyano-1,3,4,5-tetrahydro-2H-benzo[c]azepin-2-yl)pyridin-2-yl)piperazin-1-yl)methyl)-1-(oxetan-2-ylmethyl)-1H-benzo[d]imidazole-6-carboxylic acid] |
| > 500 nM |  | O=C(O)c1ccc2nc(CN3CCN(c4cccc(OCC5CCC6(CC5)COC6)n4)CC3)n(C[C@@H]3CCO3)c2c1 [Compound 46, (S)-2-((4-(6-((2-oxaspiro[3.5]nonan-7-yl)methoxy)pyridin-2-yl)piperazin-1-yl)methyl)-1-(oxetan-2-ylmethyl)-1H-benzo[d]imidazole-6-carboxylic acid] |
